Test results from patent US11504362B2, “Liquid dosage forms to treat cancer” (Exelixis, Inc., priority 2017, dated 2022).
Counter-ions that a name gives are not always drawn.

What was measured:
clinical [1] = conditions: in vivo
Method: Pharmacokinetics: Serial blood, urine, and feces were collected at specified times following dosing.
All samples collected for radioactivity analysis were analyzed for total radioactivity.
Detailed reports of the bioanalytical methodologies and results accompany the clinical study report.
The other minor metabolite in plasma, p-Fluoroaniline, was analyzed by Exelixis using a validated LC/MS/MS method.
PK variables were computed using WinNonlin Professional, version 5.2.

clinical [2] = conditions: in vivo; remark: listed apart in the source
Method: Samples for 2 subjects were used for the investigation study. Therefore, only 6 subjects' PK profiles were determined using a radio-quantitation method.

SMILES	Plasma concentrations (clinical [1]; male, human)	AUC0-24 (clinical [1]; human)	AUC0-72 (clinical [1]; human)	AUC0-inf (clinical [1]; human)	AUC0-t (clinical [1]; human)	t1/2 (clinical [1]; human)	kel (clinical [1])	AUC0-24 (clinical [2]; human)	AUC0-72 (clinical [2]; human)	AUC0-inf (clinical [2]; human)	AUC0-t (clinical [2]; human)	t1/2 (clinical [2]; human)	ke1 (clinical [2])	Tmax (clinical [2]; human)	Cmax (clinical [2]; human)
Nc1ccc(F)cc1 [p-Fluoroaniline, Para-fluoroaniline]	< 2.0 ng/mL														
COc1cc2c(Oc3ccc(NC(=O)C4(C(=O)Nc5ccc(F)cc5)CC4)cc3)cc[n+]([O-])c2cc1OC [XL184-N-Oxide]		2030 ± 682 (34) h · ng/mL	5610 ± 1940 (35) h · ng/mL	10300 ± 3170 (31) h · ng/mL	10100 ± 3210 (32) h · ng/mL	89.2 h	0.00846 h⁻¹	4300 ± 1460 h · ngEq/mL	10600 ± 3490 h · ngEq/mL	20800 ± 7640 h · ngEq/mL	13300 ± 8360 h · ngEq/mL	73.1 h	0.00976 ± 0.00212 h⁻¹		
COc1cc2nccc(Oc3ccc(NC(=O)C4(C(=O)O)CC4)cc3)c2cc1OS(=O)(=O)O [6-Demethyl Half-Dimer Sulfate]		951 ± 377 (40) h · ng/mL	7530 ± 3200 (42) h · ng/mL		99500 ± 34500 (35) h · ng/mL			2520 ± 1370 h · ngEq/mL	17400 ± 7000 h · ngEq/mL		89000 ± 32000 h · ngEq/mL			~71.99 h	
COc1cc2nccc(Oc3ccc(NC(=O)C4(C(=O)O)CC4)cc3)c2cc1OC [XL184-Half-Dimer]		1080 ± 341 (32) h · ng/mL	3120 ± 976 (31) h · ng/mL	6770 ± 1700 (25) h · ng/mL	6540 ± 1680 (26) h · ng/mL	91.8 h	0.00807 h⁻¹	3610 ± 1350 h · ngEq/mL	8680 ± 3980 h · ngEq/mL	16400 ± 1770 h · ngEq/mL	11100 ± 5890 h · ngEq/mL	57.9 ± 28.4 h	0.0136 ± 0.00672 h⁻¹	1.49 h	210 ± 73 ngEq/mL
